Values of other authors as cited in patent US20030152481A1 (priority 2002, published 2003).

Conditions: rat, in vivo

OCCc1ccccc1 [2-phenylethanol]
oral LD50: 1790 mg/kg
